These compounds were tested on HBV in HepAD38 cells (assay: HepAD38 cell antiviral assay (reduction of viral product accumulation)). Settings: Hepatitis B virus, concentration reducing viral product accumulation by 50% relative to no drug controls.
Assay type: cell-based
Procedure: Methods: HepAD38 cells are maintained as previously reported (Ladner et al, Antimicrob. Agents Chemother. 1997, […], 1715). Briefly, cells are passaged upon attaining confluency in DMEM/F12 media in the presence of 10% FBS, Penn/Strep, 250 μg/mL G418, and 1 ug/ml tetracycline. Novel compounds are screened by first washing cells three times with PBS to remove tetracycline, and plating in 96 well plates at 35,000 cells/well. Compounds dissolved in DMSO are then diluted 1:200 into wells containing cells. Five days after compound addition, material is harvested for analysis. For an extended 8 day analysis, cells are plated and treated as described above, but media and compound are refreshed on d2 and d5 post initial treatment.
On harvest day, virion DNA is obtained by lysing with Sidestep Lysis and Stabilization Buffer and then quantified via quantitative real time PCR. Commercially available ELISA kits are used to quantitate the viral proteins HBsAg (Alpco) or HBeAg (US Biological) by following the manufacturer's recommended protocol after diluting samples to match the linear range of their respective assays. Irrespective of readout, compound concentrations that reduce viral product accumulation in the cell lysates or supernatants by 50% relative to no drug controls (EC50) are reported; EC50 ranges are as follows: A<1 μM; B 1-10 μM; C>10 μM.

| SMILES | EC50 [µM] |
| --- | --- |
| O=S(=O)(c1cc(-c2ncc(-c3ccc(C4CC4)c(Cl)c3)[nH]2)ccc1Cl)N1C2CC[C@@H]1C[C@H](O)C2 [Example 10] | < 1 |
| O=C(Nc1cc(F)c(F)c(F)c1)c1ccc(Cl)c(S(=O)(=O)N2CCC3(CC2)COC3)c1 [Example 20] | 1 to 10 |
| O=S(=O)(c1cc(-c2ncc(-c3ccc(Br)c(F)c3)[nH]2)ccc1Cl)N1CCC(O)C2(CC2)C1 (stereo not drawn) [Example 5] | < 1 |
| C=C1CC2CCC(C1)N2S(=O)(=O)c1cc(C(=O)Nc2cc(F)c(F)c(F)c2)ccc1Cl [Example 17] | < 1 |
| O=S(=O)(c1cc(-c2ncc(-c3ccc(C(F)(F)F)c(Cl)c3)[nH]2)ccc1Cl)N1C2CC[C@@H]1C[C@H](O)C2 [Example 13] | < 1 |
| O=C(Nc1cc(F)c(F)c(F)c1)c1ccc(Cl)c(S(=O)(=O)N2C3CCC2CC(O)(CO)C3)c1 (stereo not drawn) [Example 18] | < 1 |
| O=S(=O)(c1cc(-c2ncc(-c3ccc(Cl)c(C4CC4)c3)[nH]2)ccc1Cl)N1C2CC[C@@H]1C[C@H](O)C2 [Example 11] | < 1 |
| O=C(Nc1ccc(Br)c(F)c1)c1ccc(Cl)c(S(=O)(=O)N2C3CC[C@@H]2C[C@H](O)C3)c1 [Example 8] | 1 to 10 |
| O=S(=O)(c1cc(C(Nc2cc(F)c(F)c(F)c2)C(F)(F)F)ccc1Cl)N1C2CC[C@@H]1CC(O)C2 (stereo partly drawn) [Example 23] | > 10 |
| O=C1CC2CCC(C1)N2S(=O)(=O)c1cc(C(=O)Nc2cc(F)c(F)c(F)c2)ccc1Cl [Example 16] | < 1 |
| O=S(=O)(c1cc(-c2ncc(-c3ccc(Br)c(F)c3)[nH]2)ccc1Cl)N1CC2(COC2)C1 [Example 22] | 1 to 10 |
| O=S(=O)(c1cc(-c2ncc(-c3ccc(C4CC4)c(C(F)(F)F)c3)[nH]2)ccc1Cl)N1C2CC[C@@H]1C[C@H](O)C2 [Example 15] | 1 to 10 |
| O=S(=O)(c1cc(-c2ncc(-c3ccc(Br)c(F)c3)[nH]2)ccc1Cl)N1C2CC[C@@H]1C[C@@H](O)C2 [Example 2] | < 1 |
| C[C@H](N)C(=O)O[C@@H]1CC2CC[C@H](C1)N2S(=O)(=O)c1cc(-c2ncc(-c3ccc(Br)c(F)c3)[nH]2)ccc1Cl [Example 4] | < 1 |
| O=S(=O)(c1cc(-c2ncc(-c3ccc(Cl)c(C(F)(F)F)c3)[nH]2)ccc1Cl)N1C2CC[C@@H]1C[C@H](O)C2 [Example 14] | < 1 |
| O=S(=O)(c1cc(-c2ncc(-c3ccc(Br)c(F)c3)[nH]2)ccc1Cl)N1C2CC[C@@H]1C[C@H](O)C2 [Example 1] | < 1 |
| O=S(=O)(c1cc(-c2ncc(-c3ccc(Br)c(F)c3)[nH]2)ccc1Cl)N1CCC2(COC2)C1 [Example 21] | 1 to 10 |
| O=C(Nc1cc(F)c(F)c(F)c1)c1ccc(Cl)c(S(=O)(=O)N2CCC(O)C3(CC3)C2)c1 (stereo not drawn) [Example 9] | < 1 |
| O=C(Nc1cc(F)c(F)c(F)c1)c1ccc(Cl)c(S(=O)(=O)N2C3CC[C@@H]2C[C@H](O)C3)c1 [Example 6] | < 1 |
| O=S(=O)(c1cc(-c2ncc(-c3ccc(C(F)(F)F)c(C4CC4)c3)[nH]2)ccc1Cl)N1C2CC[C@@H]1C[C@H](O)C2 [Example 12] | < 1 |
| O=S(=O)(c1cc(C2(Nc3cc(F)c(F)c(F)c3)COC2)ccc1Cl)N1C2CC[C@@H]1CC(O)C2 (stereo partly drawn) [Example 24] | > 10 |
| O=C(Nc1cc(F)c(F)c(F)c1)c1ccc(Cl)c(S(=O)(=O)N2C3CCC2CC(CO)C3)c1 (stereo not drawn) [Example 19] | < 1 |
| O=C(Nc1cc(F)c(F)c(F)c1)c1ccc(Cl)c(S(=O)(=O)N2C3CC[C@@H]2C[C@@H](O)C3)c1 [Example 7] | < 1 |
| C[C@H](NC(=O)OC(C)(C)C)C(=O)O[C@@H]1CC2CC[C@H](C1)N2S(=O)(=O)c1cc(-c2ncc(-c3ccc(Br)c(F)c3)[nH]2)ccc1Cl [Example 3] | < 1 |

Reference: patent publication US10280175B2, “Hepatitis B antiviral agents” (Enanta Pharmaceuticals, Inc., priority 2016, dated 2019)
